# Reference: the supplement of paper PMC6045584
# ± gives the standard deviation of the averaged measurements.
# Compound: CC(=O)NCC(=O)N1[C@@H]2CC[C@H]1c1ccc(Nc3ncc(C(F)(F)F)c(NC4CCC4)n3)cc12
# Test: surviving fraction relative to DMSO-only wells; higher = less growth inhibition
# Conditions: 50 nM; exposure time: 5 days
# Outline: (§1)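 Continuous five-day exposure to inhibitors at 0.5, 1, 5, 10, 50, 100, 500 and 1000 nM started 24 hours after log-phase tumour cell lines were seeded at 250–500 cells per well in 384-well plates. Luminescence was read after 10 minutes at room temperature. Viability is given as surviving fraction, meaning CellTiter-Glo luminescence normalised to the median of DMSO-only wells.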
row,Test System,surviving fraction
1,93VU HEADNECK,0.895 ± 0.055
2,143B BONE,0.868 ± 0.0085
3,A549 LUNG,0.686 ± 0.024
4,ASKA SYNOVIAL,0.365 ± 0.018
5,BT20 BREAST,0.365 ± 0.054
6,BT549 BREAST,0.993 ± 0.1
7,CADOES1 SOFT TISSUE,0.565 ± 0.074
8,CAL51 BREAST,0.675 ± 0.019
9,CAL72 BONE,0.917 ± 0.032
10,CAL120 BREAST,0.8605 ± 0.0059
11,CASKI CERVIX,0.771 ± 0.049
12,CHLA90 AUTONOMIC GANGLIA,0.754 ± 0.032
13,CME SYNOVIAL,0.915 ± 0.032
14,COLO320DM LARGE INTESTINE,0.573 ± 0.087
15,DU4475 BREAST,0.49 ± 0.36
16,G292 BONE,0.59 ± 0.028
17,H23 LUNG,0.949 ± 0.04
18,HCC38 BREAST,0.747 ± 0.077
19,HCC78 LUNG,0.735 ± 0.07
20,HCC202 BREAST,1.46 ± 0.16

row,Test System,surviving fraction
1,HCC1806 BREAST,0.658 ± 0.057
2,HMLE3 BREAST,0.807 ± 0.027
3,HMT3552 BREAST,0.148
4,HOS BONE,0.719 ± 0.025
5,HOSMNG BONE,0.886 ± 0.088
6,HS57T BREAST,0.633 ± 0.069
7,HSSYII SYNOVIAL,0.438 ± 0.017
8,HT1080 SOFT TISSUE,0.66 ± 0.0067
9,HU09 BONE,0.67 ± 0.024
10,HUO3N1 BONE,1.03 ± 0.076
11,JIMT1 BREAST,1.03 ± 0.053
12,LM7 BONE,0.921 ± 0.067
13,LNCAP PROSTATE,0.416 ± 0.044
14,MDAMB134 BREAST,0.992 ± 0.041
15,MDAMB157 BREAST,0.79 ± 0.11
16,MDAMB231 BREAST,0.706 ± 0.063
17,MDAMB361 BREAST,0.922 ± 0.11
18,MDAMB436 BREAST,0.937 ± 0.1
19,MDAMB468 BREAST,1.03 ± 0.047
20,MFM223 BREAST,0.794 ± 0.082

# Same assay, conditions: 100 nM; exposure time: 5 days
row,Test System,surviving fraction
1,22RV1 PROSTATE,0.678 ± 0.026
2,93VU HEADNECK,0.682 ± 0.0098
3,143B BONE,0.928 ± 0.015
4,A549 LUNG,0.65 ± 0.031
5,ASKA SYNOVIAL,0.335 ± 0.023
6,BT20 BREAST,0.199 ± 0.038
7,BT549 BREAST,0.494 ± 0.071
8,CADOES1 SOFT TISSUE,0.109 ± 0.011
9,CAL51 BREAST,0.222 ± 0.0058
10,CAL72 BONE,0.846 ± 0.022
11,CAL120 BREAST,0.643 ± 0.025
12,CASKI CERVIX,0.214 ± 0.018
13,CHLA90 AUTONOMIC GANGLIA,0.5867 ± 0.0055
14,CME SYNOVIAL,0.395 ± 0.036
15,COLO320DM LARGE INTESTINE,0.559 ± 0.02
16,DU4475 BREAST,0.131 ± 0.097
17,G292 BONE,0.485 ± 0.017
18,H23 LUNG,0.69 ± 0.051
19,HCC38 BREAST,0.668 ± 0.051
20,HCC78 LUNG,0.188 ± 0.064
21,HCC202 BREAST,1.32 ± 0.4

row,Test System,surviving fraction
1,HCC1806 BREAST,0.471 ± 0.042
2,HMLE3 BREAST,0.689 ± 0.0078
3,HMT3552 BREAST,0.47
4,HOS BONE,0.675 ± 0.025
5,HOSMNG BONE,0.874 ± 0.041
6,HS57T BREAST,0.535 ± 0.025
7,HSSYII SYNOVIAL,0.222 ± 0.015
8,HT1080 SOFT TISSUE,0.404 ± 0.011
9,HU09 BONE,0.583 ± 0.011
10,HUO3N1 BONE,0.972 ± 0.036
11,JIMT1 BREAST,0.763 ± 0.024
12,LM7 BONE,0.642 ± 0.037
13,LNCAP PROSTATE,0.46 ± 0.046
14,MDAMB134 BREAST,1.25 ± 0.18
15,MDAMB157 BREAST,0.498 ± 0.068
16,MDAMB231 BREAST,0.571 ± 0.027
17,MDAMB361 BREAST,1.1 ± 0.05
18,MDAMB436 BREAST,0.762 ± 0.079
19,MDAMB468 BREAST,0.507 ± 0.047
20,MFM223 BREAST,0.699 ± 0.063

# Same assay, conditions: 500 nM; exposure time: 5 days
row,Test System,surviving fraction
1,22RV1 PROSTATE,0.625 ± 0.059
2,93VU HEADNECK,0.331 ± 0.043
3,143B BONE,0.597 ± 0.039
4,A549 LUNG,0.585 ± 0.014
5,ASKA SYNOVIAL,0.34 ± 0.012
6,BT20 BREAST,0.293 ± 0.041
7,BT549 BREAST,0.409 ± 0.071
8,CADOES1 SOFT TISSUE,0.0853 ± 0.005
9,CAL51 BREAST,0.144 ± 0.0039
10,CAL72 BONE,0.571 ± 0.025
11,CAL120 BREAST,0.489 ± 0.053
12,CASKI CERVIX,0.199 ± 0.015
13,CHLA90 AUTONOMIC GANGLIA,0.436 ± 0.045
14,CME SYNOVIAL,0.255 ± 0.02
15,COLO320DM LARGE INTESTINE,0.283 ± 0.0029
16,DU4475 BREAST,0.0413 ± 0.016
17,G292 BONE,0.181 ± 0.0022
18,H23 LUNG,0.471 ± 0.0074
19,HCC38 BREAST,0.594 ± 0.15
20,HCC78 LUNG,0.236 ± 0.082
21,HCC202 BREAST,1.32 ± 0.15

row,Test System,surviving fraction
1,HCC1806 BREAST,0.583 ± 0.076
2,HMLE3 BREAST,0.357 ± 0.026
3,HMT3552 BREAST,0.121
4,HOS BONE,0.585 ± 0.03
5,HOSMNG BONE,0.449 ± 0.019
6,HS57T BREAST,0.443 ± 0.013
7,HSSYII SYNOVIAL,0.177 ± 0.015
8,HT1080 SOFT TISSUE,0.303 ± 0.004
9,HU09 BONE,0.3 ± 0.0061
10,HUO3N1 BONE,0.737 ± 0.064
11,JIMT1 BREAST,0.705 ± 0.0076
12,LM7 BONE,0.25 ± 0.024
13,LNCAP PROSTATE,0.689 ± 0.0089
14,MDAMB134 BREAST,1.13 ± 0.12
15,MDAMB157 BREAST,0.431 ± 0.077
16,MDAMB231 BREAST,0.416 ± 0.022
17,MDAMB361 BREAST,1.09 ± 0.075
18,MDAMB436 BREAST,0.435 ± 0.021
19,MDAMB468 BREAST,0.146 ± 0.01
20,MFM223 BREAST,0.47 ± 0.029

# Same assay, conditions: 1000 nM; exposure time: 5 days
row,Test System,surviving fraction
1,22RV1 PROSTATE,0.56 ± 0.066
2,93VU HEADNECK,0.114 ± 0.021
3,143B BONE,0.495 ± 0.056
4,A549 LUNG,0.445 ± 0.022
5,ASKA SYNOVIAL,0.386 ± 0.035
6,BT20 BREAST,0.291 ± 0.055
7,BT549 BREAST,0.237 ± 0.014
8,CADOES1 SOFT TISSUE,0.0867 ± 0.0065
9,CAL51 BREAST,0.146 ± 0.009
10,CAL72 BONE,0.419 ± 0.026
11,CAL120 BREAST,0.387 ± 0.047
12,CASKI CERVIX,0.133 ± 0.0061
13,CHLA90 AUTONOMIC GANGLIA,0.301 ± 0.037
14,CME SYNOVIAL,0.33 ± 0.015
15,COLO320DM LARGE INTESTINE,0.237 ± 0.015
16,DU4475 BREAST,0.0397 ± 0.0038
17,G292 BONE,0.087 ± 0.001
18,H23 LUNG,0.421 ± 0.014
19,HCC38 BREAST,0.455 ± 0.062
20,HCC78 LUNG,0.298 ± 0.075
21,HCC202 BREAST,1.08 ± 0.26

row,Test System,surviving fraction
1,HCC1806 BREAST,0.407 ± 0.04
2,HMLE3 BREAST,0.237 ± 0.041
3,HMT3552 BREAST,0.116
4,HOS BONE,0.485 ± 0.012
5,HOSMNG BONE,0.392 ± 0.0087
6,HS57T BREAST,0.414 ± 0.019
7,HSSYII SYNOVIAL,0.185 ± 0.0066
8,HT1080 SOFT TISSUE,0.281 ± 0.0093
9,HU09 BONE,0.179 ± 0.023
10,HUO3N1 BONE,0.533 ± 0.037
11,JIMT1 BREAST,0.593 ± 0.029
12,LM7 BONE,0.13 ± 0.007
13,LNCAP PROSTATE,0.664 ± 0.097
14,MDAMB134 BREAST,1.31 ± 0.1
15,MDAMB157 BREAST,0.216 ± 0.041
16,MDAMB231 BREAST,0.337 ± 0.018
17,MDAMB361 BREAST,0.928 ± 0.093
18,MDAMB436 BREAST,0.391 ± 0.03
19,MDAMB468 BREAST,0.151 ± 0.018
20,MFM223 BREAST,0.378 ± 0.027

# Compound: COc1cc2ncnc(Nc3ccc(F)c(Cl)c3)c2cc1OCCCN1CCOCC1 [GEFITINIB]
# Test: as above
# Conditions: 0.5 nM; exposure time: 5 days
# Outline: as §1
row,Test System,surviving fraction
1,22RV1 PROSTATE,1 ± 0.023
2,143B BONE,1.07 ± 0.023
3,A549 LUNG,1.05 ± 0.043
